Data reported in PMC5693660 (Amino acids, 2017).

Molecular target: T1, deoxyhypusine synthase (DHS) (Homo sapiens, UniProt P49366)
T1 sequence (P49366 1-369): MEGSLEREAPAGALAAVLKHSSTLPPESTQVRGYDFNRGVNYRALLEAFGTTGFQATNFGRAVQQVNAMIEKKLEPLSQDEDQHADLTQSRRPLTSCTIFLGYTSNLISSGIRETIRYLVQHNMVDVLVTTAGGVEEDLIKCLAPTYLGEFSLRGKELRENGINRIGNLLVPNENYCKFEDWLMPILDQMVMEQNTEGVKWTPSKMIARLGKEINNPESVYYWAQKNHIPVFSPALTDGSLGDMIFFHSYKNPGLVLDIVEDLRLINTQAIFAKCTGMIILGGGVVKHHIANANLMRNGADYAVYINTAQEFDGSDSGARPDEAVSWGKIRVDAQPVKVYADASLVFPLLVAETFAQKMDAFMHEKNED
Assay type: biochemical

- IC50: < 1 µM
SMILES: N=C(N)NCCCCCCCN [GC7]
